{"source": "patent US5164298A", "about": "(priority 1988, dated 1992)", "key": {"VT2 [1]": {"biological_target": "T1, VT2 (Escherichia coli, UniProt Q07871)", "type": "binding, E. coli"}, "VT2 [2]": {"biological_target": "T1, VT2", "type": "cell-based, E. coli"}, "verocytotoxin 1": {"biological_target": "verocytotoxin 1 (Bacteriophage H30, UniProt P69178)", "sequence (P69178 whole entry, looked up)": "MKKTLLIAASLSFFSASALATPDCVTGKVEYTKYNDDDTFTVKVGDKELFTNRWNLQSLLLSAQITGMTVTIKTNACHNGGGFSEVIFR"}, "Shiga toxin [3]": {"biological_target": "T2, Shiga toxin (Shigella dysenteriae, UniProt Q7BQ98)", "T2 sequence (Q7BQ98 whole entry, looked up)": "as the sequence (P69178 whole entry, looked up) above", "conditions": "cited from earlier work"}, "Shiga toxin [4]": {"biological_target": "T2, Shiga toxin", "conditions": "cited from earlier work", "remark": "listed apart in the source"}, "VT1 toxin": {"biological_target": "VT1 toxin (Bacteriophage H30, UniProt P69178)", "sequence (P69178 whole entry, looked up)": "as above"}, "[5]": {"conditions": "natural verocytotoxin, glycolipid dotted at 0.01-50 nmol"}, "[6]": {"conditions": "purified natural VT1, tlc or dot blot, antiverocytotoxin and immunoperoxidase conjugate"}}, "note": "Entries after “also recorded” stand apart in the source; their conditions may differ. Like-named read-outs stand apart in the source and are kept apart here."}
{"compound": "CCCCCCCCCCCCCC=CC(O)C(COC1OC(CO)C(OC2OC(CO)C(OC3OC(CO)C(O)C(OC4OC(CO)C(O)C(O)C4NC(C)=O)C3O)C(O)C2O)C(O)C1O)NC(=O)CCCCCCCCCCCCCCC", "note": "(stereo not drawn) [GbOse4 cer, globotetraosyl ceramide]", "values": [{"measurement": "VT2 binding to glycolipid", "setting": "VT2 [1]", "value": "no binding; also recorded: does not bind"}, {"measurement": "VT2 binding by liposomal adsorption", "setting": "VT2 [2]", "value": "at least minimal"}, {"measurement": "verocytotoxin binding above background (125I-Protein A binding curves)", "setting": "verocytotoxin 1; [5]", "value": "No binding above background"}, {"measurement": "verocytotoxin binding to glycolipid", "setting": "verocytotoxin 1; [6]", "value": "No binding"}, {"measurement": "Shiga toxin binding to glycolipid", "setting": "Shiga toxin [3]", "value": "residual binding"}]}
{"compound": "CCCCCCCCCCCCCC=CC(O)C(CO[C@@H]1O[C@H](CO)[C@@H](O[C@@H]2O[C@H](CO)[C@H](O)[C@H](O)[C@H]2O)[C@H](O)[C@H]1O)NC(=O)CCCCCCCCCCCCCCC", "note": "(stereo partly drawn) [LacCer, lactosyl ceramide]", "values": [{"measurement": "VT2 binding to glycolipid", "setting": "VT2 [1]", "value": "no binding"}, {"measurement": "verocytotoxin binding above background (125I-Protein A binding curves)", "setting": "verocytotoxin 1; [5]", "value": "No binding above background"}, {"measurement": "verocytotoxin binding to glycolipid", "setting": "verocytotoxin 1; [6]", "value": "No binding"}]}
{"compound": "N[C@H]1[C@H](O[C@H]2[C@H](O)[C@@H](N)[C@H](O[C@H]3[C@H](O)[C@@H](N)C(O)O[C@@H]3CO)O[C@@H]2CO)O[C@H](CO)[C@@H](O)[C@@H]1O", "note": "(stereo partly drawn) [chiotriose]", "values": [{"measurement": "effect on Shiga toxin Gb0se3 cer binding", "setting": "Shiga toxin [3]", "value": "little effect"}, {"measurement": "protection against Shiga toxin cytotoxicity", "setting": "Shiga toxin [4]", "value": "protects against cytotoxicity"}]}
{"compound": "CCCCCCCCCCCCC/C=C/[C@@H](O)[C@@H](N)CO[C@@H]1O[C@H](CO)[C@@H](O[C@@H]2O[C@H](CO)[C@H](O[C@H]3O[C@H](CO)[C@H](O)[C@H](O)[C@H]3O)[C@H](O)[C@H]2O)[C@H](O)[C@H]1O", "note": "[deacylated globotriosyl ceramide]", "values": [{"measurement": "amount of purified toxin the assay can detect", "setting": "VT1 toxin", "value": "less than 5 pg"}, {"measurement": "effect of deacylation on verocytotoxin binding", "setting": "VT1 toxin", "value": "does not inhibit verocytotoxin binding"}]}
{"compound": "CCCCCCCCCCCCCC=CC(O)C(CO[C@@H]1O[C@H](CO)[C@H](O[C@H]2O[C@H](CO)[C@H](O)[C@H](O)[C@H]2O)[C@H](O)[C@H]1O)NC(=O)CCCCCCCCCCCCCCC", "note": "(stereo partly drawn) [galabiosyl ceramide]", "values": [{"measurement": "VT2 binding after digestion with αgalactosidase", "setting": "VT2 [1]", "value": "binding is removed"}, {"measurement": "VT2 binding to glycolipid", "setting": "VT2 [1]", "value": "binds"}, {"measurement": "VT1 binding to Daudi cell glycolipids", "setting": "verocytotoxin 1; glycolipids contained in Daudi cells", "value": "VT1-binding"}]}
{"compound": "digalactosyl diglyceride [DGDG]", "values": [{"measurement": "VT2 binding to glycolipid", "setting": "VT2 [1]", "value": "loss of VT2 binding; also recorded: do not bind"}, {"measurement": "verocytotoxin binding above background (125I-Protein A binding curves)", "setting": "verocytotoxin 1", "value": "No binding above background"}, {"measurement": "verocytotoxin binding to glycolipid", "setting": "verocytotoxin 1", "value": "unreactive with the toxin"}]}
